Values of other authors in patent US10632043B2, “Premix formulation for parenteral use and packaging thereof” (Aurobindo Pharma Ltd, priority 2015, dated 2020).
Read-outs that look alike come from different tables or passages of the source.

Conditions: for time stable: diluted to 4 mg/mL in 0.9% sodium chloride injection, polypropylene (PP) syringes

- loss of drug potency (PP syringe, over 48 hours): about 5%
- time stable (5° C.): 14 days
- time stable (20-25° C.): 2 days
- loss of drug concentration (syringes at room temperature, over 48 hours): < 10%
- loss of drug concentration (syringes, refrigerated, over 14 days): < 5%
SMILES: Cc1cccc([C@H](C)c2cnc[nH]2)c1C [dexmedetomidine]
